We go through 55 compounds from patent US7612113B2, “Hydroxy tetrahydro-naphthalenylurea derivatives” (Xention Limited, priority 2002, dated 2009).

This test concerns the target T1, human VR1 (Homo sapiens, UniProt Q8NER1).
T1 construct: expressed in transfected cells
Briefly: capsaicin-induced Ca2+ influx in the human VR1-transfected CHO cell line (Assay 1). The format is cell-based. To be noted: 10 nM capsaicin, human VR1-CHOluc9aeq cells. The text has this: [Measurement of capsaicin-induced Ca^2+ influx in the human VR1-transfected CHO cell line] (Assay 1)
• (1) Establishment of the Human VR1-CHOluc9aeq Cell Line • Human vanilloid receptor (hVR1) cDNA was cloned from libraries of axotomized dorsal root ganglia (WO 00/29577). The cloned hVR1 cDNA was constructed with pcDNA3 vector and transfected into a CHOluc9aeq cell line. The cell line contains aequorin and CRE-luciferase reporter genes as read-out signals. The transfectants were cloned by limiting dilution in selection medium (DMEM/F12 medium (Gibco BRL) supplemented with 10% FCS, 1.4 mM Sodium pyruvate, 20 mM HEPES, 0.15% Sodium bicarbonate, 100 U/ml penicillin, 100 μg/ml streptomycin, 2 mM glutamine, non-essential amino acids and 2 mg/ml G418). Ca^2+ influx was examined in the capsaicin-stimulated clones. A high responder clone was selected and used for further experiments in the project. The human VR1-CHOluc9aeq cells were maintained in the selection medium and passaged every 3-4 days at 1-2.5×10^5 cells/flask ([…]). • (2) Measurement of Ca^2+ Influx Using FDSS-3000 • Human VR1-CHOluc9aeq cells were suspended in a culture medium which is the same as the selection medium except for G418 and seeded at a density of 1,000 cells per well into 384-well plates (black walled clear-base/Nalge Nunc International). Following the culture for 48 hrs the medium was changed to 2 μM Fluo-3 AM (Molecular Probes) and 0.02% Puronic F-127 in assay buffer (Hank's balanced salt solution (HBSS), 17 mM HEPES (pH7.4), 1 mM Probenecid, 0.1% BSA) and the cells were incubated for 60 min at. 25° C. After washing twice with assay buffer the cells were incubated with a test compound or vehicle for 20 min at 25° C. Mobilization of cytoplasmic Ca^2+ was measured by FDSS-3000 (λex=488 nm, λem=540 nm/Hamamatsu Photonics) for 60 sec after the stimulation with 10 nM capsaicin. Integral R was calculated and compared with controls. [Measurement of the Capsaicin-Induced Ca^2+ Influx in Primary Cultured Rat Dorsal Root Ganglia Neurons] (Assay 2) • (1) Preparation of Rat Dorsal Root Ganglia Neurons • New born Wister rats (5-11 days) were sacrificed and dorsal root ganglia (DRG) was removed. DRG was incubated with 0.1% trypsin (Gibco BRL) in PBS(−) (Gibco BRL) for 30 min at 37° C., then a half volume of fetal calf serum (FCS) was added and the cells were spun down. The DRG neuron cells were resuspended in Ham F12/5% FCS/5% horse serum (Gibco BRL) and dispersed by repeated pipetting and passing through 70 μm mesh Falcon). The culture plate was incubated for 3 hours at 37° C. to remove contaminating Schwann cells. Non-adherent cells were recovered and further cultured in laminin-coated 384 well plates (Nunc) at 1×10^4 cells/50 μl/well for 2 days in the presence of 50 ng/ml recombinant rat NGF (Sigma) and 50 μM 5-fluorodeoxyuridine (Sigma). • (2) Ca^2+ Mobilization Assay • DRG neuron cells were washed twice with HBSS supplemented with 17 mM HEPES (pH 7.4) and 0.1% BSA. After incubating with 2 μM fluo-3AM (Molecular Probe), 0.02% PF127 (Gibco BRL) and 1 mM probenecid (Sigma) for 40 min at 37° C., cells were washed 3 times. The cells were incubated with VR1 antagonists or vehicle (dimethylsulphoxide) and then with 1 μM capsaicin in FDSS-6000 (λex=480 nm, λem=520 nm/Hamamatsu Photonics). The fluorescence changes at 480 nm were monitored for 2.5 min. Integral R was calculated and compared with controls. [Organ Bath Assay to Measure the Capsaicin-Induced Bladder Contraction] (Assay 3)
The data corresponds to the compounds as yielded by solid phase synthesis and thus to levels of purity of about 40 to 90%. For practical reasons, the compounds are grouped in four classes of activity as follows: IC50=A(<or=)0.1 μM<B(<or=)0.5 μM<C(<or=)1 μM<D

[1] abbreviates: read-out: In vitro activity class.
[2] abbreviates: Table 1, read-out: activity class.
The mark [3] stands for this setting: Table 2, read-out: activity class.

Where two headings read alike, the source gives them in different places.

T1 sequence (Q8NER1 whole entry): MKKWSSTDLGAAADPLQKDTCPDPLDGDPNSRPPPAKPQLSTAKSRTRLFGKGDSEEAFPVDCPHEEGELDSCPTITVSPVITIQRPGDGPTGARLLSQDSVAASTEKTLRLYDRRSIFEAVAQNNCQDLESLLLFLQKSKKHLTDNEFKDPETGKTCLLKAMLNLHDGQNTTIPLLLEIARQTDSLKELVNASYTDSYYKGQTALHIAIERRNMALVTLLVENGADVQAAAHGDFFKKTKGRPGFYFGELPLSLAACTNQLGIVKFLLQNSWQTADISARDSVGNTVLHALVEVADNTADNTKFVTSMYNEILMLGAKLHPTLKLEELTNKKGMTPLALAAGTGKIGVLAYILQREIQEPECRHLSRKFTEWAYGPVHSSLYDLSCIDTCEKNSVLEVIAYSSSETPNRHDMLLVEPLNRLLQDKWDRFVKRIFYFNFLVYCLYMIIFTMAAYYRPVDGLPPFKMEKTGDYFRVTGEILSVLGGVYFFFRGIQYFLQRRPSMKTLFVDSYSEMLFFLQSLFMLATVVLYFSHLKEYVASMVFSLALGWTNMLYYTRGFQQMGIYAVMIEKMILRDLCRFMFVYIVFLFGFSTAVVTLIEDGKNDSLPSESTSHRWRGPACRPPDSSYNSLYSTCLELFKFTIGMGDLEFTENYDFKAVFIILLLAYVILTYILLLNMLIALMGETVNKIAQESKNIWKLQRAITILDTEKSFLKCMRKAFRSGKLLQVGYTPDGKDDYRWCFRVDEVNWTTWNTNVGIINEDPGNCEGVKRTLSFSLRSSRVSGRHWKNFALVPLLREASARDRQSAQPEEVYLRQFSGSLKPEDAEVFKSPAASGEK

Regarding `O=C(Nc1ccccc1)Nc1cccc2c1CC(O)CC2` (stereo not shown) [Example 2-1, N-phenyl-N′-(7-hydroxy-5,6,7,8-tetrahydro-1-naphthalenyl) urea], the IC50 under setting [1] fell in the range of 500 to 1000 nM.

Turning to `Cc1cc(NC(=O)Nc2cccc3c2CC(O)CC3)ccc1Cl` (stereo not shown) [Example 2-36], the IC50 under setting [2] is below 100 nM.

On to `COc1cc(NC(=O)Nc2cccc3c2CC(O)CC3)cc(OC)c1` (stereo not shown) [Example 2-37], for which the IC50 under setting [2] was below 100 nM.

Turning to `O=C(NCc1ccc(OC(F)(F)F)cc1)Nc1cccc2c1CC(O)CC2` (stereo not shown) [Example 4-1, N-(7-hydroxy-5,6,7,8-tetrahydro-naphthalen-1-yl)-N′-(4-trifluoromethoxy-benzyl)-urea], the IC50 under setting [1] was below 100 nM.

As to `O=C(NCc1ccc(OC(F)(F)F)cc1)Nc1cccc2c1C[C@H](O)CC2` [Example 4-2, N-{(R)-7-hydroxy-5,6,7,8-tetrahydro-naphthalen-1-yl}-N′-(4-trifluoromethoxy-benzyl)-urea], the IC50 under setting [1] is below 100 nM.

`O=C(NCc1ccc(OC(F)(F)F)cc1)Nc1cccc2c1C[C@@H](O)CC2` [Example 4-3, N-{(S)-7-hydroxy-5,6,7,8-tetrahydro-naphthalen-1-yl}-N′-(4-trifluoromethoxy-benzyl)-urea]: the IC50 under setting [1] is below 100 nM.

For the compound `O=C(NCc1ccc(C(F)(F)F)cc1)Nc1cccc2c1C[C@@H](O)CC2` [Example 4-5, N-{(S)-7-hydroxy-5,6,7,8-tetrahydro-naphthalen-1-yl}-N′-(4-trifluoromethyl-benzyl)-urea], the IC50 under setting [1] is below 100 nM.

For `O=C(NCc1ccccc1)Nc1cccc2c1CC(O)CC2` (stereo not shown) [Example 4-6], under setting [3], the IC50 was 100 to 500 nM.

Regarding `O=C(NCc1ccc(Br)cc1)Nc1cccc2c1CC(O)CC2` (stereo not shown) [Example 4-7], the IC50 under setting [3] is below 100 nM.

Take `O=C(NCc1ccc(C(F)(F)F)cc1)Nc1cccc2c1CC(O)CC2` (stereo not shown) [Example 4-8]: the IC50 under setting [3] is below 100 nM.

Take `O=C(NCc1ccc(Cl)cc1)Nc1cccc2c1CC(O)CC2` (stereo not shown) [Example 4-9]: the IC50 under setting [3] was below 100 nM.

On to `O=C(NCc1cccc(C(F)(F)F)c1)Nc1cccc2c1CC(O)CC2` (stereo not shown) [Example 4-10], for which the IC50 under setting [3] was below 100 nM.

For the compound `COc1ccccc1CNC(=O)Nc1cccc2c1CC(O)CC2` (stereo not shown) [Example 4-11], the IC50 under setting [3] was 100 to 500 nM.

With `O=C(NCc1ccc(F)c(F)c1)Nc1cccc2c1CC(O)CC2` (stereo not shown) [Example 4-12], the IC50 under setting [3] was below 100 nM.

On to `COc1cccc(CNC(=O)Nc2cccc3c2CC(O)CC3)c1` (stereo not shown) [Example 4-13], for which, under setting [3], the IC50 was in the range of 100 to 500 nM.

Take `O=C(NCc1cccc(Cl)c1)Nc1cccc2c1CC(O)CC2` (stereo not shown) [Example 4-14]: the IC50 under setting [3] is below 100 nM.

Turning to `O=C(NCc1ccc(Cl)cc1Cl)Nc1cccc2c1CC(O)CC2` (stereo not shown) [Example 4-15], under setting [3], the IC50 is below 100 nM.

Turning to `CC(C)(C)c1ccc(CNC(=O)Nc2cccc3c2CC(O)CC3)cc1` (stereo not shown) [Example 4-16], the IC50 under setting [3] was below 100 nM.

On to `O=C(NCc1ccc(OC(F)(F)F)cc1)Nc1cccc2c1CC(O)CC2` (stereo not shown) [Example 4-17], for which the IC50 under setting [3] was below 100 nM.

As for `O=C(NCc1ccc(Cl)c(Cl)c1)Nc1cccc2c1CC(O)CC2` (stereo not shown) [Example 4-18], the IC50 under setting [3] is below 100 nM.

Take `O=C(NCc1ccccc1C(F)(F)F)Nc1cccc2c1CC(O)CC2` (stereo not shown) [Example 4-19]: the IC50 under setting [3] was below 100 nM.

With `COc1ccc(CNC(=O)Nc2cccc3c2CC(O)CC3)c(OC)c1` (stereo not shown) [Example 4-20], the IC50 under setting [3] lay in the range of 100 to 500 nM.

As to `O=C(NCc1ccccc1Br)Nc1cccc2c1CC(O)CC2` (stereo not shown) [Example 4-21], under setting [3], the IC50 was below 100 nM.

For `COC(=O)c1ccc(CNC(=O)Nc2cccc3c2CC(O)CC3)cc1` (stereo not shown) [Example 4-22], the IC50 under setting [3] is below 100 nM.

Turning to `COc1cc(OC)c(CNC(=O)Nc2cccc3c2CC(O)CC3)c(OC)c1` (stereo not shown) [Example 4-23], the IC50 under setting [3] lay in the range of 500 to 1000 nM.

In the case of `O=C(NCc1cccc(Br)c1)Nc1cccc2c1CC(O)CC2` (stereo not shown) [Example 4-24], under setting [3], the IC50 is below 100 nM.

Turning to `O=C(NCc1ccc([N+](=O)[O-])cc1)Nc1cccc2c1CC(O)CC2` (stereo not shown) [Example 4-25], the IC50 under setting [3] was below 100 nM.

For `O=C(NCc1cc(C(F)(F)F)cc(C(F)(F)F)c1)Nc1cccc2c1CC(O)CC2` (stereo not shown) [Example 4-26], under setting [3], the IC50 was below 100 nM.

With `COc1ccc(CNC(=O)Nc2cccc3c2CC(O)CC3)cc1OC` (stereo not shown) [Example 4-27], the IC50 under setting [3] lay within 500 to 1000 nM.

For the compound `O=C(NCc1c(F)cccc1F)Nc1cccc2c1CC(O)CC2` (stereo not shown) [Example 4-28], under setting [3], the IC50 fell in the range of 500 to 1000 nM.

As to `O=C(NCc1cccc(OC(F)(F)F)c1)Nc1cccc2c1CC(O)CC2` (stereo not shown) [Example 4-29], the IC50 under setting [3] is below 100 nM.

Take `O=C(NCc1ccc(C(=O)O)cc1)Nc1cccc2c1CC(O)CC2` (stereo not shown) [Example 4-30]: the IC50 under setting [3] was 500 to 1000 nM.

On to `Nc1ccc(CNC(=O)Nc2cccc3c2CC(O)CC3)cc1` (stereo not shown) [Example 4-31], for which, under setting [3], the IC50 was in the range of 500 to 1000 nM.

Consider `Nc1ccccc1CNC(=O)Nc1cccc2c1CC(O)CC2` (stereo not shown) [Example 4-32], for which the IC50 under setting [3] is 500 to 1000 nM.

As for `CCOC(=O)Cc1ccc(NC(=O)Nc2cccc3c2CC(O)CC3)cc1` (stereo not shown) [Example 4-33], the IC50 under setting [3] fell in the range of 100 to 500 nM.

With `CN(C)c1ccc(CNC(=O)Nc2cccc3c2CC(O)CC3)cc1` (stereo not shown) [Example 4-34], under setting [3], the IC50 was below 100 nM.

Take `O=C(NCc1ccc(Cl)c(C(F)(F)F)c1)Nc1cccc2c1CC(O)CC2` (stereo not shown) [Example 4-35]: the IC50 under setting [3] was below 100 nM.

As for `O=C(NCCc1ccc(Cl)cc1)Nc1cccc2c1CC(O)CC2` (stereo not shown) [Example 4-36], the IC50 under setting [3] was below 100 nM.

On to `O=C(NCc1ccc(C(F)(F)F)c(F)c1)Nc1cccc2c1CC(O)CC2` (stereo not shown) [Example 4-37], for which, under setting [3], the IC50 was below 100 nM.

For the compound `Cc1ccc(Oc2ccc(NC(=O)Nc3cccc4c3CC(O)CC4)cc2)cc1` (stereo not shown) [Example 4-38], the IC50 under setting [3] is below 100 nM.

`O=C(Nc1ccc(Oc2ccc(Cl)cc2)cc1)Nc1cccc2c1CC(O)CC2` (stereo not shown) [Example 4-39]: under setting [3], the IC50 is below 100 nM.

Consider `O=C(Nc1ccc(OC(F)(F)F)cc1)Nc1cccc2c1CC(O)CC2` (stereo not shown) [Example 4-40], for which the IC50 under setting [3] was below 100 nM.

For `CC(NC(=O)Nc1cccc2c1CC(O)CC2)c1ccc(F)cc1` (stereo not shown) [Example 4-41], under setting [3], the IC50 is 100 to 500 nM.

Take `CC(NC(=O)Nc1cccc2c1CC(O)CC2)c1ccc(Br)cc1` (stereo not shown) [Example 4-42]: under setting [3], the IC50 was below 100 nM.

Turning to `O=C(Nc1cccc2c1CC(O)CC2)NC(c1ccccc1)c1ccccc1` (stereo not shown) [Example 4-43], the IC50 under setting [3] is 500 to 1000 nM.

Consider `CC(C)(NC(=O)Nc1cccc2c1CC(O)CC2)c1ccc(Cl)cc1` (stereo not shown) [Example 4-44], for which the IC50 under setting [3] lay in the range of 100 to 500 nM.

Turning to `O=C(NCc1ccc(SC(F)(F)F)cc1)Nc1cccc2c1CC(O)CC2` (stereo not shown) [Example 4-45], the IC50 under setting [3] is below 100 nM.

In the case of `O=C(NCc1cccc2ccccc12)Nc1cccc2c1CC(O)CC2` (stereo not shown) [Example 4-46], the IC50 under setting [3] is below 100 nM.

On to `N#CCc1ccc(NC(=O)Nc2cccc3c2CC(O)CC3)cc1` (stereo not shown) [Example 4-47], for which, under setting [3], the IC50 was 100 to 500 nM.

`CC(NC(=O)Nc1cccc2c1CC(O)CC2)c1ccccc1` (stereo not shown) [Example 4-48]: under setting [3], the IC50 fell in the range of 100 to 500 nM.

With `CC(NC(=O)Nc1cccc2c1CC(O)CC2)c1cccc2ccccc12` (stereo not shown) [Example 4-49], under setting [3], the IC50 is below 100 nM.

For `NS(=O)(=O)c1ccc(CNC(=O)Nc2cccc3c2CC(O)CC3)cc1` (stereo not shown) [Example 4-50], the IC50 under setting [3] lay in the range of 500 to 1000 nM.

With `O=C(NCc1ccc(C(F)(F)F)c(NC2CCCC2)c1)Nc1cccc2c1CC(O)CC2` (stereo not shown) [Example 4-51], the IC50 under setting [3] was below 100 nM.

As to `O=C(NCc1ccc(C(F)(F)F)c(NC2CCCC2)c1)Nc1cccc2c1CC(O)CC2` (stereo not shown) [Example 4-52], under setting [3], the IC50 was below 100 nM.

Take `O=C(NCCc1ccc(Cl)cc1)Nc1cccc2c1C[C@H](O)CC2` [Example 4-53]: under setting [3], the IC50 is below 100 nM.
